Here are results for one compound from ChEMBL document CHEMBL2163283, “Design and synthesis of novel stiripentol analogues as potential anticonvulsants” (Eur J Med Chem, 2012).

Experiment [1] relates to Mus musculus. In words: Anticonvulsant activity in Swiss albino mouse assessed as protection against subcutaneous pentylenetetrazol-induced seizures at 420 umol/kg, ip administered 30 mins before pentylenetetrazole challenge measured after 30 mins relative to stiripentol. The class given is functional.
Experiment [2] relates to Mus musculus. In words: Anticonvulsant activity in Swiss albino mouse assessed as maximal electroshock-induced seizures at 420 umol/kg, ip administered 30 mins before electroshock challenge. The format is functional, organism-based. (In general: In the maximal electroshock model the usual endpoint is tonic extension of the hind limbs.)
Experiment [3] deals with Mus musculus. In words: Anticonvulsant activity in Swiss albino mouse assessed as protection against subcutaneous pentylenetetrazol-induced seizures at 420 umol/kg, ip administered 30 mins before pentylenetetrazole challenge measured after 30 mins. The class given is functional.

The source made the active and inactive calls. The rule behind the calls is not given here.

As for `CC(C)(C)C1=NN(C(=O)c2ccccc2)C(c2ccc3c(c2)OCO3)C1` (racemic), the Activity with Mus musculus [1] worked out at 1.27%; with Mus musculus [3] it was 66%. Besides, in the experiment on Mus musculus [2], the result was inactive.
